US5629321A, “Bicyclic compound and platelet aggregation inhibitor containing the same” (Mitsui Toatsu Chemicals, Inc., priority 1994, dated 1997)
Structures can show the parent of a compound that is named as a salt.

How the values were obtained:
platelet aggregation [1] = test: Inhibition of platelet aggregation in Guinea pig (ADP-induced, platelet-rich plasma); type: cell-based, male guinea pig; details: Cavia porcellus, guinea pig PRP, ADP final concentration 5 μM, 37° C.
Method: 1. Inhibition of platelet aggregation in Guinea pig
Blood of male guinea pig was collected with an injection syringe which contains 3.8% sodium citrate as an anticoagulant in a ratio of 1 volume to 9 volumes of the blood. Successively, the collected blood mixture was subjected to centrifugation at 120×g for 15 minutes at room temperature to obtain platelet-rich plasma (PRP). The residual blood after separating PRP was further subjected to centrifugation at 1,200×g for 15 minutes to obtain platelet-poor plasma (PPP). Numbers of the platelet in PRP were measured with an automatic platelet counter: Sysmex PL-100 (manufactured by Toa Iyodensi Co.) and PRP was diluted with PPP so as to adjust a platelet concentration to be about 300,000 particles/μ 1. Platelet aggregation was measured by the following procedure with a 6 channel aggregometer: HEMA TRACER 1 (manufactured by NKK Co.).
(§1) After warming 240 μl of PRP at 37° C. for 2 minutes, 30 μl of the solvent of specimen as a control or of the specimen having various concentrations was added to PRP. Further 2 minutes later, 30 μl of adenosine diphosphate (final concentration: 5 μM) was added to induce platelet aggregation. An inhibition percentage was obtained by comparing the maximum aggregation rate of the specimen drug group with that of control. […]

platelet aggregation [2] = test: Inhibition of platelet aggregation in human (ADP-induced, platelet-rich plasma); type: cell-based; details: human PRP, ADP final concentration 5 μM, 37° C.
Method: 2. Inhibition of platelet aggregation in human
Blood was collected from healthy human volunteers with an injection syringe and mixed one volume of 3.8% sodium citrate as an anticoagulant to 9 volumes of the blood. Successively, the obtained blood mixture was subjected to centrifugation at 120×g for 15 minutes at room temperature to obtain platelet-rich plasma (PRP). The residual blood after separating the PRP was further subjected to centrifugation at 1,200×g for 20 minutes to obtain platelet-poor plasma (PPP). Numbers of the platelet were measured with an automatic platelet counter: Sysmex PL-100 (manufactured by Toa Iyodensi Co.) and PRP was diluted with PPP so as to adjust a platelet concentration to be about 250,000 particles/μl. Platelet aggregation was measured by the following procedure with a 6 channel aggregometer: HEMA TRACER 1 (manufactured by NKK Co.)
as §1, with “or” for “or of”

| IC50 (platelet aggregation [1]) | IC50 (platelet aggregation [2]) | SMILES |
| --- | --- | --- |
| 39000 nM | – | N=C(N)c1ccc(OCc2ccc3c(c2)CC(CC(=O)O)CC3)cc1 (stereo not shown) [Compound No. 82, 7-[(4-amidinophenoxy)methyl]-1,2,3,4-tetrahydronaphthalene-2-acetic acid] |
| 400 nM | – | CCOC(=O)CC1CCc2ccc(NC(=O)c3ccc(C(=N)N)cc3)cc2C1 (stereo not shown) [Compound No. 3, ethyl 7-[(4-amidinobenzoyl)amino]-1,2,3,4-tetrahydronaphthalene-2-acetate] |
| 24000 nM | – | N=C(N)c1ccc(CNc2ccc3c(c2)CC(CC(=O)O)CC3)cc1 (stereo not shown) [Compound No. 84, 7-[(4-amidinobenzyl)amino]-1,2,3,4-tetrahydronaphthalene-2-acetic acid] |
| 370 nM | 57 nM | N=C(N)c1ccc(C(=O)Nc2ccc3c(c2)CC(CC(=O)O)CC3)cc1 (stereo not shown) [Compound No. 1, 7-[(4-amidinobenzoyl)amino]-1,2,3,4-tetrahydronaphthalene-2-acetic acid] |
| 27000 nM | – | N=C(N)Nc1ccc(C(=O)Nc2ccc3c(c2)CC(CC(=O)O)CC3)cc1 (stereo not shown) [Compound No. 93, 7-[(4-guanidinobenzoyl)amino]-1,2,3,4-tetrahydronaphthalene-2-acetic acid] |
| 22000 nM | – | COC(=O)CC1CCc2ccc(OCc3ccc(C(=N)N)cc3)cc2C1 (stereo not shown) [Compound No. 81, methyl 7-[(4-amidinobenzyl)oxy]-1,2,3,4-tetrahydronaphthalene-2-acetate] |
| > 100000 nM | 3900 nM | N=C(N)c1ccc(C(=O)Nc2ccc3c(c2)C(=O)N(CC(=O)O)CC3)cc1 [Comparative compound, 7-[(4-amidinobenzoyl)amino]-l-oxo-3,4-dihydroisoquinolone-2-acetic acid hydrochloride, reference compound] |
| 12000 nM | – | N=C(N)c1ccc(COc2ccc3c(c2)CC(CC(=O)O)CO3)cc1 (stereo not shown) [Compound No. 89, 6-[(4-amidinobenzyl)oxy]chroman-3-acetic acid] |
| 41000 nM | – | N=C(N)c1ccc(COc2ccc3c(c2)C=C(CC(=O)O)CC3)cc1 [Compound No. 91, 7-[(4-amidinobenzyl)oxy]-3,4-dihydronaphthalene-2-acetic acid] |
| 340 nM | 115 nM | CN(C(=O)c1ccc2c(c1)CC(CC(=O)O)CC2)c1ccc(C(=N)N)cc1 (stereo not shown) [Compound No. 56, 7-[N-(4-amidinophenyl)-N-methylcarbamoyl]-1,2,3,4-tetrahydronaphthalene-2-acetic acid] |
| 4300 nM | – | CCOC(=O)CN1CCc2ccc(C(=O)Nc3ccc(C(=N)N)cc3)cc2C1 [compound 37, ethyl 7-[N-(4-amidinophenyl)carbamoyl]-1,2,3,4-tetrahydroisoquinoline-2-acetate] |
| 340 nM | – | CCOC(=O)CC1CCc2ccc(C(=O)Nc3ccc(C(=N)N)cc3)cc2C1 (stereo not shown) [Compound No. 11, ethyl 7-[N-(4-amidinophenyl)carbamoyl]-1,2,3,4-tetrahydronaphthalene-2-acetate] |
| 6600 nM | 293 nM | N=C(N)c1ccc(C(=O)Nc2ccc3c(c2)CN(CC(=O)O)CC3)cc1 [Compound No. 28, 7-[(4-amidinobenzoyl)amino]-1,2,3,4-tetrahydroisoquinoline-2-acetic acid] |
| 14000 nM | – | NCc1ccc(C(=O)Nc2ccc3c(c2)CC(CC(=O)O)CC3)cc1 (stereo not shown) [Compound No. 123, 7-[(4-aminomethylbenzoyl)amino]-1,2,3,4-tetrahydronaphthalene-2-acetic acid] |
| 1770 nM | 194 nM | CN(C(=O)c1ccc(C(=N)N)cc1)c1ccc2c(c1)CC(CC(=O)O)CC2 (stereo not shown) [Compound No. 47, 7-[N-(4-amidinobenzoyl)-N-methylamino]-1,2,3,4-tetrahydronaphthalene-2-acetic acid] |
| – | 49 nM | N=C(N)c1ccc(C(=O)Nc2ccc3c(c2)CC(CC(=O)O)CO3)cc1 (stereo not shown) [Compound No. 17, 6-[(4-amidinobenzoyl)amino]chroman-3-acetic acid] |
| – | 1500 nM | N=C(N)c1ccc(COc2ccc3c(c2)CC(CC(=O)O)CC3)cc1 (stereo not shown) [Compound No. 80, 7-[(4-amidinobenzyl)oxy]-1,2,3,4-tetrahydronaphthalene-2-acetic acid] |
| 17000 nM | – | CCOC(=O)CC1COc2ccc(OCc3ccc(C(=N)N)cc3)cc2C1 (stereo not shown) [Compound No. 90, ethyl 6-[(4-amidinobenzyl)oxy]chroman-3-acetate] |
| 230 nM | 46 nM | N=C(N)c1ccc(NC(=O)c2ccc3c(c2)CC(CC(=O)O)CC3)cc1 (stereo not shown) [Compound No. 9, 7-[N-(4-amidinophenyl)carbamoyl]-1,2,3,4-tetrahydronaphthalene-2-acetic acid] |
